Paper PMC10350928 (Journal of Medicinal Chemistry, 2023)

Tests used:
WT c-MET [1] = target: T1, WT c-MET (Homo sapiens, UniProt P08581); assay type: binding; conditions: Table 1; LLE = pKd – log D
Rat hepatocytes = assay: Rat hepatocyte Clint; conditions: for RH: rat hepatocytes
Log D shake-flask method = conditions: octanol/water, pH 7.4, logD, Table 1, octanol and water at pH7.4
WT c-MET [2] = target: T1, WT c-MET; assay type: biochemical; conditions: Table 3; LLE = pIC50 – log D
Human hepatocytes = assay: Human hepatocyte Clint; conditions: Table 4
P-gp (MDR1) = assay: MDR1-MDCK permeability and efflux; conditions: dog
[3] = Rat plasma pharmacokinetics; conditions: male, Han Wistar, iv, 0.5 mg/kg

T1 sequence (P08581 25-1390): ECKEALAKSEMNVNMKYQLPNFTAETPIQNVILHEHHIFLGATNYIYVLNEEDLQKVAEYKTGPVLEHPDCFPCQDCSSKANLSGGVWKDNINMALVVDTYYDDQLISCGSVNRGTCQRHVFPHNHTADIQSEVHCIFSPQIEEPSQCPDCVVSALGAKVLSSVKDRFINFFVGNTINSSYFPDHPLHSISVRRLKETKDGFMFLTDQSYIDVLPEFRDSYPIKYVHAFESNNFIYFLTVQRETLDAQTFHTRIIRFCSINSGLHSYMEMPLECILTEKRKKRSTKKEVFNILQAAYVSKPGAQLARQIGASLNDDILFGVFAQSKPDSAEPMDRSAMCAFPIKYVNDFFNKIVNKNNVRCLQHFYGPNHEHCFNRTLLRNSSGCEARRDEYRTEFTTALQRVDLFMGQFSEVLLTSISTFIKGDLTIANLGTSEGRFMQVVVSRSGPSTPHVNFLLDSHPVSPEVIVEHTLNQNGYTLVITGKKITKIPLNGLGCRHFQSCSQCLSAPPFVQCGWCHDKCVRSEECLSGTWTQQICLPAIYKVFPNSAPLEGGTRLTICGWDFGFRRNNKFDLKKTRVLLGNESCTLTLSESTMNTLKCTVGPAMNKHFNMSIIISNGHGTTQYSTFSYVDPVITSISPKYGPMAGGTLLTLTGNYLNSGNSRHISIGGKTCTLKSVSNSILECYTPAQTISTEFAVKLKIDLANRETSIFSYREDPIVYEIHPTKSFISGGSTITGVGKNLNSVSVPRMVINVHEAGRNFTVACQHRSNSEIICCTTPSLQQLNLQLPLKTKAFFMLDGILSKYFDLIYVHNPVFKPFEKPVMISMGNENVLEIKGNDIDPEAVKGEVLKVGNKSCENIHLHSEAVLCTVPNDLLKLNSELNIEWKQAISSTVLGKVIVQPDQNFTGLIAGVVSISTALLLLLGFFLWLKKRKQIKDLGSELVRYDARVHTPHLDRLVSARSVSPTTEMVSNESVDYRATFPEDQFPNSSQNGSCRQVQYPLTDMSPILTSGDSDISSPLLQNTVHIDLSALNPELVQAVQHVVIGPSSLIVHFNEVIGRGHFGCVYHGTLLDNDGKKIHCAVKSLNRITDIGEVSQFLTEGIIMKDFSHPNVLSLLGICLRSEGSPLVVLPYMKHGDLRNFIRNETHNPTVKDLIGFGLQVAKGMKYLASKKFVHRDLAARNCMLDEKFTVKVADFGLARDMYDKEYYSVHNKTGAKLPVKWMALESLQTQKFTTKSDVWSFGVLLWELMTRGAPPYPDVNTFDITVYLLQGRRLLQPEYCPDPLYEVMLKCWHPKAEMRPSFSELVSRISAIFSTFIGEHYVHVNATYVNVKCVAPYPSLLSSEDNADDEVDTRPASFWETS

With `CC(c1ccc(F)cc1)n1cc(-c2cc(F)cc(F)c2)c(=O)[nH]c1=O` (stereo not drawn) [Compound 6, 5-(3,5-Difluorophenyl)-1-(1-(4-fluorophenyl)ethyl)pyrimidine-2,4(1H,3H)-dione] the “SPR assay LLE WT” value (WT c-MET [1]) was 2.6, the RH (Rat hepatocytes; Table 1) was 26.8 μL/min/10^6 cells and the logD (Log D shake-flask method) was 3.3.
For `C[C@@H](c1ccc(F)cc1)n1cc(-c2cc(F)cc3cn[nH]c23)c(=O)[nH]c1=O` [Compound 27, (S)-5-(5-Fluoro-1H-indazol-7-yl)-1-(1-(4-fluorophenyl)ethyl)pyrimidine-2,4(1H,3H)-dione], the “ADP-Glo assay LLE WT” value (WT c-MET [2]) was 4.1, the RH (Rat hepatocytes; Table 3) was 14.8 μL/min/10^6 cells and the “Hepatocytes Rat” value (Rat hepatocytes; Table 4) was 14.8 μL/min/10^6 cells. The “Hepatocytes Human” value (Human hepatocytes) was 1.81 μL/min/10^6 cells, the efflux ratio at 2 h, 10 μM (P-gp (MDR1)) was less than 7 and the clearance [3] was 74 mL/min/kg.
